Species on record: Rattus norvegicus
Assay: Open TG-GATES - Regimen: Single
Assay type: toxicity, organism-based, Sprague-Dawley
Set-up: regimen Single, gender Male, age 6 weeks
Conditions: in vivo, po, 25 mg/kg, route gavage, dose level Middle; for APTT / Bas / Eos / Fbg / Hb / Ht / Lym / MCH / MCHC / MCV / Mono / Neu / PT / Plat / RBC / Ret / WBC: tissue Blood; for KIDNEY_L / KIDNEY_R / KIDNEY_TOTAL: tissue Kidney; for LIVER: tissue Liver; for A/G / ALP / ALT / AST / BUN / CRE / Ca / Cl / DBIL / GLC / IP / K / LDH / Na / PL / RALB / TBIL / TC / TG / TP / gamma-GTP: tissue Plasma

**Q.** What does the source list for NC1=NC(=O)C(c2ccccc2)O1 (configuration not stated) [PEMOLINE]?
**A.** TERMINAL_BW (3 h): 210.1 g; APTT (3 h): 15.6 s; Bas (3 h): 0%; Eos (3 h): 1%; Fbg (3 h): 280.4 mg/dL; Hb (3 h): 13.5 g/dL; Ht (3 h): 39.8%; Lym (3 h): 74.2%; MCH (3 h): 21.3 pg; MCHC (3 h): 33.8%; MCV (3 h): 62.9 fL; Mono (3 h): 3.8%; Neu (3 h): 20.6%; PT (3 h): 13.1 s; Plat (3 h): 115 x10_4/uL; RBC (3 h): 633.2 x10_4/ul; Ret (3 h): 8.8%; WBC (3 h): 86.4 x10_2/uL; KIDNEY_L (3 h): 0.9 g; KIDNEY_R (3 h): 0.9 g; KIDNEY_TOTAL (3 h): 1.8 g; LIVER (3 h): 9.3 g; A/G (3 h): 1; ALP (3 h): 1568.2 IU/L; ALT (3 h): 42.6 IU/L; AST (3 h): 86 IU/L; BUN (3 h): 8.2 mg/dL; CRE (3 h): 0.2 mg/dL; Ca (3 h): 10.5 mg/dL; Cl (3 h): 106.4 meq/L; DBIL (3 h): 0.01 mg/dL; GLC (3 h): 185.2 mg/dL; IP (3 h): 8.5 mg/dL; K (3 h): 3.8 meq/L; LDH (3 h): 104 IU/L; Na (3 h): 140.4 meq/L; PL (3 h): 122.4 mg/dL; RALB (3 h): 2.7 g/dL; TBIL (3 h): 0.044 mg/dL; TC (3 h): 72.4 mg/dL; TG (3 h): 39.6 mg/dL; TP (3 h): 5.4 g/dL; gamma-GTP (3 h): 1.4 IU/L; TERMINAL_BW (6 h): 209.6 g; APTT (6 h): 17.7 s; Bas (6 h): 0.2%; Eos (6 h): 1%; Fbg (6 h): 316.4 mg/dL; Hb (6 h): 13.6 g/dL; Ht (6 h): 40%; Lym (6 h): 72.2%; MCH (6 h): 21.7 pg; MCHC (6 h): 34%; MCV (6 h): 63.7 fL; Mono (6 h): 2.6%; Neu (6 h): 23.6%; PT (6 h): 13.4 s; Plat (6 h): 122.6 x10_4/uL; RBC (6 h): 629.6 x10_4/ul; Ret (6 h): 9.8%; WBC (6 h): 101.7 x10_2/uL; KIDNEY_L (6 h): 0.9 g; KIDNEY_R (6 h): 0.9 g; KIDNEY_TOTAL (6 h): 1.8 g; LIVER (6 h): 8.2 g; A/G (6 h): 1; ALP (6 h): 1568 IU/L; ALT (6 h): 44 IU/L; AST (6 h): 81.8 IU/L; BUN (6 h): 7 mg/dL; CRE (6 h): 0.2 mg/dL; Ca (6 h): 10.4 mg/dL; Cl (6 h): 108.2 meq/L; DBIL (6 h): 0.01 mg/dL; GLC (6 h): 179.2 mg/dL; IP (6 h): 9.4 mg/dL; K (6 h): 3.5 meq/L; LDH (6 h): 67.6 IU/L; Na (6 h): 140.8 meq/L; PL (6 h): 121.4 mg/dL; RALB (6 h): 2.8 g/dL; TBIL (6 h): 0.052 mg/dL; TC (6 h): 77 mg/dL; TG (6 h): 15.2 mg/dL; TP (6 h): 5.5 g/dL; gamma-GTP (6 h): 1 IU/L; TERMINAL_BW (9 h): 212 g; APTT (9 h): 16 s; Bas (9 h): 0%; Eos (9 h): 0.6%; Fbg (9 h): 316.2 mg/dL; Hb (9 h): 13.7 g/dL; Ht (9 h): 40.4%; Lym (9 h): 75.2%; MCH (9 h): 21.7 pg; MCHC (9 h): 33.8%; MCV (9 h): 64.2 fL; Mono (9 h): 2.4%; Neu (9 h): 21.2%; PT (9 h): 13.4 s; Plat (9 h): 112 x10_4/uL; RBC (9 h): 630.8 x10_4/ul; Ret (9 h): 9.7%; WBC (9 h): 91.7 x10_2/uL; KIDNEY_L (9 h): 0.9 g; KIDNEY_R (9 h): 0.9 g; KIDNEY_TOTAL (9 h): 1.7 g; LIVER (9 h): 8.1 g; A/G (9 h): 1; ALP (9 h): 1640.8 IU/L; ALT (9 h): 40.2 IU/L; AST (9 h): 83.4 IU/L; BUN (9 h): 8.6 mg/dL; CRE (9 h): 0.2 mg/dL; Ca (9 h): 10.6 mg/dL; Cl (9 h): 106.4 meq/L; DBIL (9 h): 0.014 mg/dL; GLC (9 h): 191.6 mg/dL; IP (9 h): 9.7 mg/dL; K (9 h): 3.8 meq/L; LDH (9 h): 94.4 IU/L; Na (9 h): 141.4 meq/L; PL (9 h): 137 mg/dL; RALB (9 h): 2.8 g/dL; TBIL (9 h): 0.044 mg/dL; TC (9 h): 86.8 mg/dL; TG (9 h): 27.2 mg/dL; TP (9 h): 5.6 g/dL; gamma-GTP (9 h): 1.4 IU/L; TERMINAL_BW (24 h): 209.6 g; APTT (24 h): 16.3 s; Bas (24 h): 0%; Eos (24 h): 1%; Fbg (24 h): 290 mg/dL; Hb (24 h): 12.9 g/dL; Ht (24 h): 37.6%; Lym (24 h): 80.4%; MCH (24 h): 21.9 pg; MCHC (24 h): 34.3%; MCV (24 h): 63.7 fL; Mono (24 h): 3.6%; Neu (24 h): 14.4%; PT (24 h): 13 s; Plat (24 h): 107.2 x10_4/uL; RBC (24 h): 589 x10_4/ul; Ret (24 h): 8.2%; WBC (24 h): 73.1 x10_2/uL; KIDNEY_L (24 h): 0.9 g; KIDNEY_R (24 h): 0.9 g; KIDNEY_TOTAL (24 h): 1.8 g; LIVER (24 h): 9.3 g; A/G (24 h): 1; ALP (24 h): 1533.8 IU/L; ALT (24 h): 46.6 IU/L; AST (24 h): 87.8 IU/L; BUN (24 h): 15.4 mg/dL; CRE (24 h): 0.2 mg/dL; Ca (24 h): 10.6 mg/dL; Cl (24 h): 104.4 meq/L; DBIL (24 h): 0.014 mg/dL; GLC (24 h): 176.8 mg/dL; IP (24 h): 8.8 mg/dL; K (24 h): 4.2 meq/L; LDH (24 h): 71.6 IU/L; Na (24 h): 140.6 meq/L; PL (24 h): 128.2 mg/dL; RALB (24 h): 2.7 g/dL; TBIL (24 h): 0.032 mg/dL; TC (24 h): 78 mg/dL; TG (24 h): 50 mg/dL; TP (24 h): 5.4 g/dL; gamma-GTP (24 h): 1 IU/L

— ChEMBL document CHEMBL3885861, “Open TG-GATES”
